Measured values from patent publication US9034929B2, “Aminoalcohol and biocide compositions for aqueous based systems” (ANGUS Chemical Company, priority 2007, dated 2015).

How the values were obtained:
[1] = tested on: fungi of a mixed bacterial/fungal inoculum isolated from spoiled metalworking fluids; assay: ASTM Practice E 2275-03 microbial challenge test of diluted metalworking fluids, fungal counts; format: cell-based
Description: (§1) This compound was formulated at 8% by weight into a generic semi-synthetic metalworking fluid concentrate as described in Table 1. Identical formulations were prepared except substituting conventional amino alcohol compounds for 3A4O. The conventional amino alcohols were 2-amino-2-methyl-1-propanol (AMP) and n-butylethanolamine (BEA). An identical set of fluid concentrates was prepared including 1.5% of a 77% aqueous solution of 1,3,5-tris(2-hydroxyethyl)-s-triazine preservative, allowing us to evaluate fluids with and without preservative. The fluid concentrates were diluted at a rate of 20 parts Chicago tap water to 1 part fluid concentrate (by weight); the active amino alcohol concentration at dilution was therefore approximately 0.4% and the active preservative dosage (in the preserved set) was approximately 0.058%. These fluids were subjected to microbial challenge testing by ASTM Practice E 2275-03. In this method fluids are inoculated initially and then weekly with a mixed bacterial/fungal inoculum isolated from spoiled metalworking fluids. The bacterial and fungal counts are measured weekly using a serial dilution plate count method, and reported as colony forming units per milliliter (CFU/mL). The lower the CFU/mL the better the microbial control, and the longer the predicted service life of the fluid. The microbial results are described in FIGS. 1 & 2 (unpreserved) and FIGS. 3 & 4 (preserved with triazine).
(§2) This material was formulated into the same metalworking fluid concentrate described in Example A, at an 8% concentration. Identical fluids were prepared using 8% 2-amino-2-methyl-1-propanol (AMP) and 8% dicyclohexylamine (DCHA). The preservative benzisothiazolinone (BIOBAN BIT 20 DPG from Dow Biocides) was added to each fluid concentrate at 1.2%, giving an active concentration of 0.24% in the fluid concentrates and 0.012% in the use diluted fluids. The diluted fluids were subjected to the same microbial testing protocol described in Example A, and the results are described in FIGS. 5 & 6.
In order to understand the influence of use level of the amino alcohols of the invention, we prepared similar semi-synthetic fluid concentrates as described previously but using 4% amino alcohol to give 2000 ppm at use dilution; the difference in the formulation was made up with water. The fluid concentrates were preserved with the same level of triazine-77% described previously. These fluids were diluted and subjected to the same bacterial/fungal challenge tests described in Examples A and B; the data are found in FIGS. 8 & 9. […]

[2] = tested on: bacteria of a mixed bacterial/fungal inoculum isolated from spoiled metalworking fluids; assay: ASTM Practice E 2275-03 microbial challenge test of diluted metalworking fluids, bacterial counts; format: cell-based; conditions: for bacterial growth / resistance to bacterial attack: 8% amino alcohol fluid with benzisothiazolinone (BIT), 0.012% active in diluted fluid, FIG. 5
Description: as §1, §2
In order to understand the influence of use level of the amino alcohols of the invention, we prepared similar semi-synthetic fluid concentrates as described previously but using 4% amino alcohol to give 2000 ppm at use dilution; the difference in the formulation was made up with water. The fluid concentrates were preserved with the same level of triazine-77% described previously. These fluids were diluted and subjected to the same bacterial/fungal challenge tests described in Examples A and B; the data are found in FIGS. 8 & 9.
FIGS. 10-17 provide additional comparisons between 3-amino-4-octanol (3A4O), an aminoalcohol of the invention, and the non-invention aminoalcohol compounds 2-amino-2-methyl-1-propanol (AMP) and n-butylethanolamine (BEA), in conjunction with various biocides. In particular, FIGS. 10 and 11 bacterial and fungal efficacy comparisons of the aminoalcohols with BIOBAN P-1487 (a combination of 4-(2-nitrobutyl)-morpholine with 4,4′-(2-ethyl-2-nitrotrimethylene)dimorpholine). This biocide was added to give 750 ppm in the diluted fluid. The amine dosage was adjusted to give 4000 ppm at dilution. FIGS. 12 and 13 show bacterial and fungal efficacies of the aminoalcohols in the presence of a triazine/IPBC biocide blend. Triazine-78% was added at 750 ppm based on diluted fluid and iodopropynylbutylcarbamate (IPBC) added at 300 ppm active at dilution. The amine dosage was adjusted to give 3000 ppm at dilution. FIGS. 14 and 15 show bacterial and fungal efficacy of the compounds with Benzisothiazolinone (BIT). BIT was added at 120 ppm active based on diluted fluid and iodopropynylbutylcarbamate (IPBC) added at 300 ppm active at dilution. The amine dosage was adjusted to give 3000 ppm at dilution. FIGS. 16 and 17 show bacterial and fungal efficacy of the aminoalcohols with a chloromethylisothiazolinone/methylisothiazolinone (CMIT/MIT) blend. […]

[3] = tested on: mycobacterium immunogenum (ATTCC strain 700505); assay: ASTM microbial challenge test with mycobacterial inoculum; format: cell-based; conditions: 8% amino alcohol fluid with 1.5% triazine preservative (77% active) in concentrate; FIG. 7
pseudomonas aeroginosa = conditions: stated as known; cited from earlier work
[4] = tested on: fungi of a mixed bacterial/fungal inoculum isolated from spoiled metalworking fluids; conditions: at the dosage used (about 0.058% active at dilution); cited from earlier work

CCCCC(O)C(C)N (stereo not shown) [2A3H, 2-amino-3-heptanol]
fungal growth / resistance to fungal attack ([1]; 8% amino alcohol fluid with benzisothiazolinone (BIT), 0.012% active in diluted fluid, FIG. 6): resists attack better than that with AMP, and is comparable in resistance to the fluid with DCHA
fungal growth (plate count, CFU/mL) ([1]; unpreserved semi-synthetic MWF, 8% amino alcohol in concentrate (about 0.4% at dilution), weekly inoculation, FIG. 2): does not significantly inhibit bacterial or fungal growth
bacterial growth / resistance to bacterial attack [2]: more resistant to bacterial attack than the others
bacterial growth (plate count, CFU/mL) ([2]; unpreserved semi-synthetic MWF, 8% amino alcohol in concentrate (about 0.4% at dilution), weekly inoculation, FIG. 1): does not significantly inhibit bacterial or fungal growth

CCCCC(O)C(N)CC (stereo not shown) [3A4O, 3-amino-4-octanol]
fungal growth (plate count, CFU/mL) ([1]; 8% amino alcohol fluid preserved with triazine (about 0.058% active at dilution), FIG. 4): unexpected reduction in growth rate over the full course of the test
enhancement of biocide efficacy against fungi ([1]; amine 3000-4000 ppm at dilution with BIOBAN P-1487, triazine/IPBC, BIT or CMIT/MIT, FIGS. 11, 13, 15, 17): greater enhancement against fungi
bacterial growth (plate count, CFU/mL) ([2]; 8% amino alcohol fluid preserved with triazine (about 0.058% active at dilution), FIG. 3): unexpected reduction in growth rate over the full course of the test
enhancement of biocide efficacy against bacteria ([2]; amine 3000-4000 ppm at dilution with BIOBAN P-1487, triazine/IPBC, BIT or CMIT/MIT, FIGS. 10, 12, 14, 16): increased enhancement of biocide efficacy

CC(C)(N)CO [AMP, 2-amino-2-methyl-1-propanol, reference compound]
mycobacterial growth / resistance [3]: virtually no inhibition of activity
bacterial growth / resistance to bacterial attack [2]: relatively poor performance against bacteria

O=c1[nH]sc2ccccc12 [BIT, benzisothiazolinone]
efficacy against pseudomonas aeroginosa (pseudomonas aeroginosa): not to be effective

C1CCC(NC2CCCCC2)CC1 [DCHA, dicyclohexylamine, reference compound]
bacterial growth / resistance to bacterial attack [2]: the opposite is true

OCCN1CN(CCO)CN(CCO)C1 [triazine preservative, 1,3,5-tris(2-hydroxyethyl)-s-triazine]
efficacy of the preservative alone against fungi [4]: not effective against fungi
